The supplement of paper PMC7801607

Columns and labels:
[1] = tested on: Plasmodium falciparum Dd2 asexual blood stage
[2] = tested on: Plasmodium falciparum NF54 asexual blood stage
[3] = tested on: Plasmodium berghei ANKA liver stage in HepG2-A16-CD81
[4] = tested on: HepG2-A16-CD81; test: CC50; higher = less toxic
Protocol: (§1)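 Dose-response IC50s: P. falciparum NF54 asexual (pLDH, 72 h; 6 means >6 µM), Dd2 asexual (SYBR Green I, 72 h, 1536-well; 5 means >5 µM), NF54 stage IV/V gametocytes (luciferase 48 h, ATP 24 h, PrestoBlue 48 h), P. berghei liver stage in HepG2-A16-CD81 (luciferase, 48 h; 5 means >5 µM), HepG2 CC50 (CellTiter-Glo; 5 means >5 µM).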

[5] = tested on: Plasmodium falciparum NF54 stage IV/V gametocytes
Protocol: as §1

Compound | IC50 [1] [µM] | IC50 [2] [µM] | IC50 [3] [µM] | CC50 [4] [µM] | IC50 (ATP bioluminescence) [5] [nM]
CN1CCN(c2ccc3[nH]c(-c4ccc5[nH]c(-c6ccc(O)cc6)nc5c4)nc3c2)CC1 | 0.022 | 0.149 | > 5 | > 5 | 
CCN(CC)CCCC(C)Nc1ccnc2cc(Cl)ccc12 (stereo not given) | 0.0507 | 0.0301 | > 5 | > 5 | 
CN(C)CCCNC(=O)c1ccc(-c2cc(O)c3ncccc3c2)cc1 | > 5 | > 6 |  |  | 620
O=C(Nc1nnc(-c2ccc(Cl)cc2)o1)c1nc2ccccc2s1 | > 5 | > 6 |  |  | 
CCCCCc1ccc(C(=O)NCCn2cc(CCCCCc3cnc(N)[nH]3)nn2)cc1 | > 5 | > 6 |  |  | 
O=C(c1ccccc1)N1CCN(c2ccccc2NC(=O)C(Cl)(Cl)Cl)CC1 | > 5 | 2.12 |  |  | 
O=C(Nc1ccc(N2CCN(C(=O)c3ccccc3)CC2)cc1)c1ccc2c(c1)OCO2 | > 5 | > 6 |  |  | 
CCOc1noc2cc(OCCC3CCN(c4ccc(C)nn4)CC3)ccc12 | > 5 | > 6 |  |  | 
COc1cc(NS(=O)(=O)c2ccc(C)cc2)c2ncccc2c1 | > 5 |  |  |  | 2750
COC1CC2CCC(C)C(O)(O2)C(=O)C(=O)N2CCCCC2C(=O)OC(C(C)CC2CCC(OCCO)C(OC)C2)CC(=O)C(C)/C=C(\C)C(O)C(OC)C(=O)C(C)CC(C)/C=C/C=C/C=C/1C (stereo not given) | 2.06 |  | > 5 | > 5 | 
Nc1c(C(=O)NCc2ccco2)c2nc3ccccc3nc2n1CCN1CCCCC1 | > 5 | > 6 |  |  | 3160
Fc1ccc2c(/C=C/c3cccnc3)c[nH]c2c1 | 1.01 |  | > 5 | > 5 | 
Cc1ccc(NC(=O)c2cc(Cl)ccc2O)cc1 | > 5 | > 6 |  |  | 
CC(C)c1ccc(COc2cccc(-c3cc(S(C)=O)c(C#N)c(=O)[nH]3)c2)cc1 (stereo not given) | > 5 |  |  |  | 950
CC(C)Oc1ccc(-c2nc(-c3cccc4c3CC[C@@H]4NCCO)no2)cc1C#N | 3.66 | > 6 |  |  | 2130
CC(C)=CCC/C(C)=C/CNCCNC1C2CC3CC(C2)CC1C3 (stereo not given) | > 5 |  |  |  | 474
Cc1c(OCC(F)(F)F)ccnc1CS(=O)c1nc2ccccc2[nH]1 (stereo not given) | > 5 | > 6 |  |  | 
CC(C)Cn1c(=O)n(C)c(=O)c2c(-c3cncn3C)n(Cc3cccc4ccccc34)nc21 | > 5 | > 6 |  |  | 
COc1ccc2nc(-c3ccccc3)cc(O)c2c1 | 1.01 | 1.78 |  |  | 
C[C@@H](NC(=O)c1cccc(-c2c[nH]c(-c3cc4ccccc4cn3)n2)c1)c1ccc(F)cc1 | > 5 |  |  |  | 1100
Cc1ccc(S(=O)(=O)Nc2cccc3cccnc23)cc1 | > 5 | 5.1 |  |  | 
COc1cc(NCc2ccc3nc(N)nc(N)c3c2C)cc(OC)c1OC | 0.108 |  | 0.000527 | 1.66 | 
CCCCc1ccc(S(=O)(=O)Nc2cc(C)on2)cc1 | > 5 | > 6 |  |  | 
O=[N+]([O-])c1ccc2c(CCc3c[nH]c4ccccc34)c[nH]c2c1 | > 5 | 0.687 |  |  | 
CCCCc1ccc(C(=O)O)nc1 | > 5 | > 6 |  |  | 
OC1O[C@H](CSc2ccc(F)cc2)[C@@H](O)[C@H]1O (stereo not given in full) | > 5 | 0.825 |  |  | 
CC1CN(c2ncnc3c2c(-c2ccccc2)cn3-c2ccc(F)cc2)CC(C)O1 (stereo not given) | > 5 | 1.58 |  |  | 

Compound | IC50 [1] [µM] | IC50 [2] [µM] | IC50 [3] [µM] | CC50 [4] [µM] | IC50 (ATP bioluminescence) [5] [nM]
O=C(NCc1ccc(F)cc1)c1c(O)c2ncccc2[nH]c1=O | > 5 | > 6 |  |  | 
NC1C2CC3CC(C2)CC1C3 (stereo not given) | > 5 | 5.7 |  |  | 
C=CCN(C(=O)OCc1ccc([N+](=O)[O-])cc1)C1CCN(CC[C@](C)(CN(C)S(=O)(=O)c2ccccc2)c2ccccc2)CC1 | > 5 | > 6 |  |  | 
COc1ccc(CNC(=O)C2CCN([C@H](C)c3cccc4ccccc34)CC2)cc1 | > 5 | > 6 |  |  | 
CC(C)Nc1nc2cc(Cl)c(Cl)cc2n1[C@H]1O[C@@H](CO)[C@H](O)[C@@H]1O | > 5 | > 6 |  |  | 
O=c1cc(NCCCN[C@@H]2CCOc3c(Br)cc(Br)cc32)[nH]c2ccsc12 | 1.61 |  | 1.73 | > 5 | 
Nc1nc(F)nc2c1ncn2[C@H]1O[C@@H](CO)[C@H](O)[C@@H]1O | > 5 | 2.3 |  |  | 
CCC[C@@H]1C[C@@H](C(=O)N[C@@H]([C@H]2O[C@H](SC)[C@H](O)[C@@H](O)[C@H]2O)[C@H](C)Cl)N(C)C1 | > 5 | > 6 |  |  | 
CC(C)(C)NC(=O)[C@@H]1CN(Cc2cnc3occc3c2)CCN1C[C@@H](O)C[C@@H](Cc1ccccc1)C(=O)N[C@H]1c2ccccc2C[C@H]1O | 2.29 | 2.85 |  |  | 
C=C[C@]1(C)C[C@@H](OC(=O)CS[C@@H]2C[C@H]3CC[C@@H](C2)N3C)[C@]2(C)[C@H](C)CC[C@]3(CCC(=O)[C@H]32)[C@@H](C)[C@@H]1O | > 5 | > 6 |  |  | 
Oc1c(C(Nc2ccccn2)c2ccccc2)ccc2cccnc12 (stereo not given) | > 5 | 5.04 |  |  | 
COc1ccc(SC(=O)N[C@H](CCC(=O)O)C(=O)O)cc1 | > 5 | > 6 |  |  | 
CCOCc1nc2c(N)nc3ccccc3c2n1CC(C)(C)O | > 5 | > 6 |  |  | 
C[Si]1(C)CCN(Cc2cc(-c3ccc(Cl)cc3)n(-c3ccc(Cl)cc3)n2)CC1 |  | > 6 |  |  | 1290
CC1CCc2c(N3CCC(O)CC3)c(F)cc3c(=O)c(C(=O)O)cn1c23 (stereo not given) | > 5 | > 6 |  |  | 
CC[C@@]1(O)C(=O)OCc2c1cc1n(c2=O)Cc2cc3c([N+](=O)[O-])cccc3nc2-1 | 4.44 |  | 3.57 | > 5 | 
Nc1cnn(C2OC(CO)C(O)C2O)c(=O)n1 (stereo not given) | > 5 | > 6 |  |  | 
Clc1ccc(Cn2c(CN3CCCC3)nc3ccccc32)cc1 | > 5 |  |  |  | 5860
CCC(C)(C)c1ccc(CC(C)CN2C[C@@H](C)O[C@@H](C)C2)cc1 (stereo not given in full) | > 5 | 2.11 |  |  | 
O=C(O)CSc1cc(NS(=O)(=O)c2cccc3cccnc23)c2ccccc2c1O | > 5 | 2.57 |  |  | 
NCC(=O)Nc1ccc(-n2nc(C(F)(F)F)cc2-c2ccc3c(ccc4ccccc43)c2)cc1 | > 5 |  |  |  | 1200
COc1ccc(CNC(=O)C(NS(=O)(=O)c2ccc3nc(C)sc3c2)C(C)C)cc1 (stereo not given) | > 5 | > 6 |  |  | 
Cc1ccc(NC(=O)c2ccc(CN3CCN(C)CC3)cc2)cc1Nc1nccc(-c2cccnc2)n1 | > 5 | 2.55 |  |  | 
Cc1oncc1C(=O)Nc1ccc(C(F)(F)F)cc1 | > 5 | > 6 |  |  | 
Cn1cncc1[C@@](N)(c1ccc(Cl)cc1)c1ccc2c(c1)c(-c1cccc(Cl)c1)cc(=O)n2C | > 5 | 3.65 |  |  | 
Nc1cc(N)c2nc(-c3ccccc3)c(Nc3ccc(F)cc3)nc2c1 | 4.09 | 2.16 |  |  | 
CCc1cc(O)c(Oc2ccc(C(N)=O)cc2F)cc1F | > 5 | 5.84 |  |  | 
